# Test results reported in patent US20260035382A1, “COMPOUNDS AS SUMO ACTIVATING ENZYME INHIBITORS” (WIGEN BIOMEDICINE TECHNOLOGY (SHANGHAI) CO., LTD., priority 2022, published 2026).
# Read-outs that look alike come from different tables or passages of the source.
# Target: SAE (Homo sapiens (Human), UniProt Q9UBT2)
# Test: In vitro inhibitory activity assay against SAE (SUMO-2/3 immunofluorescence in HCT116 cells)
# Format: cell-based
# Conditions: 6 h incubation, read-out: SUMO IF IC50
# Procedure, shortened: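 HCT116 cells treated with compounds for 6 h at 37 °C, then fixed, permeabilized and immunostained for SUMO-2/3 with FITC secondary detection. Fluorescence compared with DMSO control to give inhibition rate and IC50.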
# SAE, sequence (Q9UBT2 whole entry): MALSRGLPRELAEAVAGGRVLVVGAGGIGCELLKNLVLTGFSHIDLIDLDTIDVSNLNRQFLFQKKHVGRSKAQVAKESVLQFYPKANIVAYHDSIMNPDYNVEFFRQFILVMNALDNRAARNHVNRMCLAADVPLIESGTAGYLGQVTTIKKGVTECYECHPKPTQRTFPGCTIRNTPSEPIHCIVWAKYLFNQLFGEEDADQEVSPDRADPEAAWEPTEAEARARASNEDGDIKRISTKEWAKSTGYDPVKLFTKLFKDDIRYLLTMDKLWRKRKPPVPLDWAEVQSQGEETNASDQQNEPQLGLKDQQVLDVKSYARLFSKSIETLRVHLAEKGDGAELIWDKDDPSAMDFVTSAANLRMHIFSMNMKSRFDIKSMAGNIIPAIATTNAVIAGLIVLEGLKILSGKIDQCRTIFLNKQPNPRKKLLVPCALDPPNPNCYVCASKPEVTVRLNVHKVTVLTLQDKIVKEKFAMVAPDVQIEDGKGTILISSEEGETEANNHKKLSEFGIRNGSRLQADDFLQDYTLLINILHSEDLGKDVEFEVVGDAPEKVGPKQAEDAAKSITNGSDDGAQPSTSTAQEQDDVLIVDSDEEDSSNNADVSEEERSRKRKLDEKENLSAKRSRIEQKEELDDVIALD
# SAE, sequence (Q9UBE0 whole entry partner): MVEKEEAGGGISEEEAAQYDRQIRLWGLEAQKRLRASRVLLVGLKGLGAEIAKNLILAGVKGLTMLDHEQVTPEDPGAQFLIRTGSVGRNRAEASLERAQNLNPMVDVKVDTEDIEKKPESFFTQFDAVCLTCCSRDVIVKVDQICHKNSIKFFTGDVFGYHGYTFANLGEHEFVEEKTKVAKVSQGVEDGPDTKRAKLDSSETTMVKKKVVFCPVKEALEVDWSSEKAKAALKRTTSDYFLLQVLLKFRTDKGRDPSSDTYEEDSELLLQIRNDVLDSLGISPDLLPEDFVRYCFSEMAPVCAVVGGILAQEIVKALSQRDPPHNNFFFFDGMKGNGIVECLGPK
Compound,IC50 (class symbols) [nM],IC50 (numeric values) [nM]
Cc1ccc2c(c1)[C@@]1(CCc3sc(C(=O)c4cncnc4N[C@@H]4C[C@H](COS(N)(=O)=O)[C@@H](O)C4)cc31)NCC2 [Compound 223],50 to 200,–
NS(=O)(=O)OC[C@H]1C[C@@H](Nc2ncncc2C(=O)c2cc3c(s2)COC[C@]32NCCc3ccc(F)cc32)C[C@@H]1O [Compound 18],–,104
NS(=O)(=O)OC[C@H]1C[C@@H](Nc2ncncc2C(=O)c2cc3c(s2)COC[C@]32NCCc3ccc(Cl)c(F)c32)C[C@@H]1O [Compound 105],50 to 200,–
NS(=O)(=O)OC[C@H]1C[C@@H](Nc2ncncc2C(=O)c2cc3c(s2)CC[C@]32NCC3(CC3)c3ccc(Cl)cc32)C[C@@H]1O [Compound 240],50 to 200,–
NS(=O)(=O)OC[C@H]1C[C@@H](Nc2ncncc2C(=O)c2cc3c(s2)CCC[C@]32NCCc3ccc(C4CC4)cc32)C[C@@H]1O [Compound 203],50 to 200,–
NS(=O)(=O)OC[C@H]1C[C@@H](Nc2ncncc2C(=O)c2cc3c(s2)CCCC32NCCc3cc(Cl)c(Cl)cc32)C[C@@H]1O (stereo partly drawn) [Compound 28],50 to 200,–
NS(=O)(=O)OC[C@H]1C[C@@H](Nc2ncncc2C(=O)c2nc3c(s2)COC[C@@]32NCCc3ccc(Cl)cc32)C[C@@H]1O [Compound 125],> 200,–
NS(=O)(=O)OC[C@H]1C[C@@H](Nc2ncncc2C(=O)c2cc3c(s2)CCCC32NCC3(CC3)c3ccc(Cl)cc32)C[C@@H]1O (stereo partly drawn) [Compound 39],50 to 200,–
NS(=O)(=O)OC[C@H]1C[C@@H](Nc2ncncc2C(=O)c2cc3c(s2)CC[C@@]32NCCc3ccc(Cl)cc32)C[C@@H]1O [Compound 47],–,> 1000
NS(=O)(=O)OC[C@H]1C[C@@H](Nc2ncncc2C(=O)c2cc3c(s2)CCC[C@]32NCCc3ccc(C(F)(F)F)cc32)C[C@@H]1O [Compound 205],50 to 200,–
NS(=O)(=O)OC[C@H]1C[C@@H](Nc2ncncc2C(=O)c2cc3c(s2)CC[C@@]32NCCc3ccc(F)cc32)C[C@@H]1O [Compound 50],–,> 1000
NS(=O)(=O)OC[C@H]1C[C@@H](Nc2ncncc2C(=O)c2cc3c(s2)CCCC32NCCc3ccc(F)cc32)C[C@@H]1O (stereo partly drawn) [Compound 7],50 to 200,–
NS(=O)(=O)OC[C@H]1C[C@@H](Nc2ncncc2C(=O)c2cc3c(s2)C=C[C@]32NCCc3ccc(Cl)cc32)C[C@@H]1O [Compound 176],–,23.2
NS(=O)(=O)OC[C@H]1C[C@@H](Nc2ncncc2C(=O)c2cc3c(s2)COCC32NCCc3cc(Cl)c(Cl)cc32)C[C@@H]1O (stereo partly drawn) [Compound 97],50 to 200,–
NS(=O)(=O)OC[C@H]1C[C@@H](Nc2ncncc2C(=O)c2cc3c(s2)CNCC32NCCc3ccc(Cl)cc32)C[C@@H]1O (stereo partly drawn) [Compound 118],50 to 200,–
NS(=O)(=O)OC[C@H]1C[C@@H](Nc2ncncc2C(=O)c2cc3c(s2)CCC[C@]32NCC3(CC3)c3ccc(Cl)cc32)C[C@@H]1O [Compound 219],≤ 50,–
N#Cc1ccc2c(c1)C1(CCCc3sc(C(=O)c4cncnc4N[C@@H]4C[C@H](COS(N)(=O)=O)[C@@H](O)C4)cc31)OCC2 (stereo partly drawn) [Compound 250],50 to 200,–
NS(=O)(=O)OC[C@H]1C[C@@H](Nc2ncncc2C(=O)c2cc3c(s2)C(F)(F)C[C@]32NCCc3ccc(Cl)cc32)C[C@@H]1O [Compound 162],50 to 200,–
CN1Cc2sc(C(=O)c3cncnc3N[C@@H]3C[C@H](COS(N)(=O)=O)[C@@H](O)C3)cc2[C@]2(C1)OCCc1ccc(Cl)cc12 [Compound 261],≤ 50,–
NS(=O)(=O)OC[C@H]1C[C@@H](Nc2ncncc2C(=O)c2cc3c(s2)CSC[C@]32NCCc3ccccc32)C[C@@H]1O [Compound 87],50 to 200,–
NS(=O)(=O)OC[C@H]1C[C@@H](Nc2ncncc2C(=O)c2cc3c(s2)CN(CC(F)(F)F)C[C@@]32NCCc3ccc(Cl)cc32)C[C@@H]1O [Compound 188],–,> 1000

Compound,IC50 (class symbols) [nM],IC50 (numeric values) [nM]
COc1cc2c(cc1Cl)C1(CCc3sc(C(=O)c4cncnc4N[C@@H]4C[C@H](COS(N)(=O)=O)[C@@H](O)C4)cc31)NCC2 (stereo partly drawn) [Compound 73],50 to 200,–
N#Cc1cc2c(cc1Cl)[C@@]1(CCCc3sc(C(=O)c4cncnc4N[C@@H]4C[C@H](COS(N)(=O)=O)[C@@H](O)C4)cc31)NCC2 [Compound 210],≤ 50,–
NS(=O)(=O)OC[C@H]1C[C@@H](Nc2ncncc2C(=O)c2cc3c(s2)CNC[C@]32NCCc3ccc(Cl)cc32)C[C@@H]1O [Compound 120],50 to 200,–
COc1ccc2c(c1)[C@@]1(CCc3sc(C(=O)c4cncnc4N[C@@H]4C[C@H](COS(N)(=O)=O)[C@@H](O)C4)cc31)NCC2 [Compound 225],50 to 200,–
NS(=O)(=O)OC[C@H]1C[C@@H](Nc2ncncc2C(=O)c2nc3c(s2)CSC[C@]32NCCc3ccc(Cl)cc32)C[C@@H]1O [Compound 129],50 to 200,–
NS(=O)(=O)OC[C@H]1C[C@@H](Nc2ncncc2C(=O)c2cc3c(s2)CCC[C@@]32OCCc3ccc(F)cc32)C[C@@H]1O [Compound 248],> 200,–
Cc1cc2c(cc1Cl)C1(CCc3sc(C(=O)c4cncnc4N[C@@H]4C[C@H](COS(N)(=O)=O)[C@@H](O)C4)cc31)NCC2 (stereo partly drawn) [Compound 71],50 to 200,–
NS(=O)(=O)OC[C@H]1C[C@@H](Nc2ncncc2C(=O)c2cc3c(s2)CCC[C@]32NC(=O)Cc3ccc(Cl)cc32)C[C@@H]1O [Compound 165],> 200,–
NS(=O)(=O)OC[C@H]1C[C@@H](Nc2ncncc2C(=O)c2cc3c(s2)CCC32OCCc3ccc(Cl)cc32)C[C@@H]1O (stereo partly drawn) [Compound 84],≤ 50,–
NS(=O)(=O)OC[C@H]1C[C@@H](Nc2ncncc2C(=O)c2cc3c(s2)CC[C@]32NCCc3ccc(F)cc32)C[C@@H]1O [Compound 51],–,50.7
CN1Cc2sc(C(=O)c3cncnc3N[C@@H]3C[C@H](COS(N)(=O)=O)[C@@H](O)C3)cc2C2(C1)NCCc1ccc(Cl)cc12 (stereo partly drawn) [Compound 112],≤ 50,–
CN1CCc2ccc(Cl)cc2[C@]12CCCc1sc(C(=O)c3cncnc3N[C@@H]3C[C@H](COS(N)(=O)=O)[C@@H](O)C3)cc12 [Compound 131],> 200,–
NS(=O)(=O)OC[C@H]1C[C@@H](Nc2ncncc2C(=O)c2cc3c(s2)CCC32NCC3(CC3)c3ccc(Cl)cc32)C[C@@H]1O (stereo partly drawn) [Compound 81],50 to 200,–
Cc1ccc2c(c1)C1(CCc3sc(C(=O)c4cncnc4N[C@@H]4C[C@H](COS(N)(=O)=O)[C@@H](O)C4)cc31)NCC2 (stereo partly drawn) [Compound 64],50 to 200,–
NS(=O)(=O)OC[C@H]1C[C@@H](Nc2ncncc2C(=O)c2cc3c(s2)COCC32NCCc3ccc(Cl)c(F)c32)C[C@@H]1O (stereo partly drawn) [Compound 103],50 to 200,–
NS(=O)(=O)OC[C@H]1C[C@@H](Nc2ncncc2C(=O)c2cc3c(s2)CSC[C@@]32NCCc3ccc(Cl)cc32)C[C@@H]1O [Compound 92],–,> 1000
NS(=O)(=O)OC[C@H]1C[C@@H](Nc2ncncc2C(=O)c2cc3c(s2)COC32NCCc3ccc(Cl)cc32)C[C@@H]1O (stereo partly drawn) [Compound 80],50 to 200,–
NS(=O)(=O)OC[C@H]1C[C@@H](Nc2ncncc2C(=O)c2cc3c(s2)CCC32NC3(CC3)Cc3ccc(Cl)cc32)C[C@@H]1O (stereo partly drawn) [Compound 82],50 to 200,–
COc1ccc2c(c1)C1(CCCc3sc(C(=O)c4cncnc4N[C@@H]4C[C@H](COS(N)(=O)=O)[C@@H](O)C4)cc31)NCC2 (stereo partly drawn) [Compound 24],> 200,–
NS(=O)(=O)OC[C@H]1C[C@@H](Nc2ncncc2C(=O)c2cc3c(s2)COCC32NCCc3ccc(Cl)cc32)C[C@@H]1O (stereo partly drawn) [Compound 19],50 to 200,–
NS(=O)(=O)OC[C@H]1C[C@@H](Nc2ncncc2C(=O)c2cc3c(s2)CCC[C@]32NCCc3ccc(Cl)nc32)C[C@@H]1O [Compound 138],≤ 50,–
